Values quoted from earlier work in patent US20040266650A1, “Washing and/or cleaning article” (priority 2001, published 2004).
In brackets after ≈: the same amount, converted by molar mass. Where two headings read alike, the source gives them in different places.

In the case of `NC(N)=O` [Urea], the Solubility (Table 2, in water at 20° C.) is given as 1080 mg/mL (≈ 18000 mM).

In the case of Sodium polyphosphate, the Solubility (Table 2, in water at 20° C.) is given as 1000 mg/mL and the Solubility (Table 3, in water, no temperature printed (Table 2: 20° C.)) is given as 1000 mg/mL.

In the case of `O=C(O)/C=C\C(=O)O` [Maleic acid], the Solubility (Table 2, in water at 25° C.) is listed as 788 mg/mL (≈ 6790 mM) and the Solubility (Table 3, in water at 25° C.) is listed as 788 mg/mL (≈ 6790 mM).

In the case of `[Cl-].[Cs+]` [Cesium chloride], the Solubility (Table 2, in water at 20° C.) is listed as 1800 mg/mL.

For `O=C(O)CC(O)C(=O)O` (racemic) [DL-Malic acid], the Solubility (Table 2, in water at 26° C.) is given as 1440 mg/mL (≈ 10700 mM) and the Solubility (Table 3, in water at 26° C.) is given as 1440 mg/mL (≈ 10700 mM).

In the case of `[Cl-].[Cl-].[Zn+2]` [Zinc chloride], the Solubility (Table 2, in water at 20° C.) is listed as 3680 mg/mL.

In the case of `[Cl-].[K+]` [Potassium chloride], the Solubility (Table 2, in water at 20° C.) is listed as 340 mg/mL.

For `O=C[C@H](O)[C@@H](O)[C@@H](O)[C@H](O)CO` [D(+)-Galactose], the Solubility (Table 2, in water at 25° C.) is listed as 680 mg/mL (≈ 3770 mM).

For `O=C(CO)[C@@H](O)[C@H](O)[C@@H](O)CO` [L-(−)-Sorbose], the Solubility (Table 2, in water at 17° C.) is given as 550 mg/mL (≈ 3050 mM).
